From ChEMBL document CHEMBL5465560, “Selectivity Literature for EUbOPEN Chemogenomic Library” (2024)

Legend:
[1] = biological target: T1, Mitogen-activated protein kinase kinase kinase 5 (Homo sapiens) (UniProt Q99683); experiment: Selectivity interaction (Kinase panel (DSF assay)) EUB0001559a MAP3K5
T1 sequence (whole entry): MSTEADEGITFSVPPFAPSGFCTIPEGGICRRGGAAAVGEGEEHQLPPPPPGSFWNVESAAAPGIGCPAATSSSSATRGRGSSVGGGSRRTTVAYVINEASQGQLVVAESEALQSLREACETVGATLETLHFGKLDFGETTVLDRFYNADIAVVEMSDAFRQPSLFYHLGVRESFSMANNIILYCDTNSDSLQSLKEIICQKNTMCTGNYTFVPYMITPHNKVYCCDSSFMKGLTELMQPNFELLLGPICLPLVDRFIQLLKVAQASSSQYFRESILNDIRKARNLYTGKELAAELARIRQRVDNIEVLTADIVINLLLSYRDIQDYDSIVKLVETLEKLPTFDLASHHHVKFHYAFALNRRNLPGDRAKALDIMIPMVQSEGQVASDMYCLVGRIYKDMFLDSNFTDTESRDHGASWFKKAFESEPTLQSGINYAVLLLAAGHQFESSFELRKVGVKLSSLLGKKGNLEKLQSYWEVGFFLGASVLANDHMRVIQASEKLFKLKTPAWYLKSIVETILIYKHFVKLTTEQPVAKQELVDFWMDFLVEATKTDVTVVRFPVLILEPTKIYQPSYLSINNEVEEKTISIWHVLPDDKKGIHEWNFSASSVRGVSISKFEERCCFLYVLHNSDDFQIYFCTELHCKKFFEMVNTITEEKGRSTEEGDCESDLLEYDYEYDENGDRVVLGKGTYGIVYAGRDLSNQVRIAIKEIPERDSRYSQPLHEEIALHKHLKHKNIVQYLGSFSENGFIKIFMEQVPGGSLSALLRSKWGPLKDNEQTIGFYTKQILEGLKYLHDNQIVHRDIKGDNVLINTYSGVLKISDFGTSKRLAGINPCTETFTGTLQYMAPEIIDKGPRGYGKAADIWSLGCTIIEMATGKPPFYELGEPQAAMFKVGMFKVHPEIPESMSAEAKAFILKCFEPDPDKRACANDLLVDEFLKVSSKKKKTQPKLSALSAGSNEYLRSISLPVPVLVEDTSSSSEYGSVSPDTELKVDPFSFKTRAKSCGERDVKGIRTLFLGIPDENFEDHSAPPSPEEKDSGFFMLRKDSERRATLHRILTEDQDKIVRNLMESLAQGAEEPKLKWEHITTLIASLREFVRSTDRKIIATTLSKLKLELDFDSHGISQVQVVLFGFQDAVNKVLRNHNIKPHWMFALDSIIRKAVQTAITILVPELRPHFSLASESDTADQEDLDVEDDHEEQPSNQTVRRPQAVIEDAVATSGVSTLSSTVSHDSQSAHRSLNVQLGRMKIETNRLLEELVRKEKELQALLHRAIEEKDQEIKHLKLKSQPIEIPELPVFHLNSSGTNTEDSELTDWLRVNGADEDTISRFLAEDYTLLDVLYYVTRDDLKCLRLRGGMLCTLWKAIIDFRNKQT

[2] = biological target: T2, Phosphatidylinositol 4,5-bisphosphate 3-kinase catalytic subunit delta isoform (Homo sapiens) (UniProt O00329); experiment: Selectivity interaction (ActivX KiNativ screen (kinase selectivity in THP-1 cell lysates)) EUB0000639a PIK3CD; type: subcellular; details: lysate, at 1 µM
T2 sequence (whole entry): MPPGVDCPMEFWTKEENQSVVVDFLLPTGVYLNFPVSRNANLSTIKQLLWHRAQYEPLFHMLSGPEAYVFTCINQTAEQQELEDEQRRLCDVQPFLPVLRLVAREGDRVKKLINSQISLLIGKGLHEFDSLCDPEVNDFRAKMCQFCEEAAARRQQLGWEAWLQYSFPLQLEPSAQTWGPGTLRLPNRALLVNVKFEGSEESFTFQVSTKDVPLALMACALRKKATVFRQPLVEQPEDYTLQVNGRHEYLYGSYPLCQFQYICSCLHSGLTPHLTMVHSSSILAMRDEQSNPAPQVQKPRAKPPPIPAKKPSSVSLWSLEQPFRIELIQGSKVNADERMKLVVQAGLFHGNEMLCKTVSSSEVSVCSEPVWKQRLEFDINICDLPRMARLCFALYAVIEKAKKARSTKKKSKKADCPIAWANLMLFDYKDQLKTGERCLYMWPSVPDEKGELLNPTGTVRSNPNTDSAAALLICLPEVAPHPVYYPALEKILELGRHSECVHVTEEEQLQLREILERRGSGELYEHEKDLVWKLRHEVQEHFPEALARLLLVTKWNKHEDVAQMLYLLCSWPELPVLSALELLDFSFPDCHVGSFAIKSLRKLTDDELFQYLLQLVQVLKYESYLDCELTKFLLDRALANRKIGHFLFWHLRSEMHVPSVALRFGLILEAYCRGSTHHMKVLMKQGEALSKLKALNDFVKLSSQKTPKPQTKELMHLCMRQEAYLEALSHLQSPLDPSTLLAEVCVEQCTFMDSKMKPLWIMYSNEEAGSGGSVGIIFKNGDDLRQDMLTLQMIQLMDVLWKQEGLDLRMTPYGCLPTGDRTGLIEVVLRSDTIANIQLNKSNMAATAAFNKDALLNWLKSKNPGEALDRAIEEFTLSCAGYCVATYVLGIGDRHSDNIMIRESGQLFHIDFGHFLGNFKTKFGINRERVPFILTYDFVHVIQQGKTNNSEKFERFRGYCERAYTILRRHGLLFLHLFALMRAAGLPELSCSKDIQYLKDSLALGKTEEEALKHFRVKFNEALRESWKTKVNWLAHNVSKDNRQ

| dTM [1] | % of inhibition [2] | Structure (SMILES) |
| --- | --- | --- |
| -0.3 K |  | CN(C(=O)c1cnn2cccnc12)c1cc2c(cc1N1CCOCC1)C(=O)N(C[C@@H](F)C(C)(C)O)C2 |
|  | -2.6% | CC[C@@H]1[C@H](F)C(=O)N[C@@H]1COc1nccc2cc(C(N)=O)c(OC)cc12 [ZIMLOVISERTIB] |
